{"source": "patent US20070167353A1", "about": "“PRODRUG COMPOSITION” (priority 2003, published 2007)", "key": {"HPEPT1 [1]": {"target": "T1, HPEPT1 (Homo sapiens, UniProt P46059)", "T1 sequence (P46059 1-708)": "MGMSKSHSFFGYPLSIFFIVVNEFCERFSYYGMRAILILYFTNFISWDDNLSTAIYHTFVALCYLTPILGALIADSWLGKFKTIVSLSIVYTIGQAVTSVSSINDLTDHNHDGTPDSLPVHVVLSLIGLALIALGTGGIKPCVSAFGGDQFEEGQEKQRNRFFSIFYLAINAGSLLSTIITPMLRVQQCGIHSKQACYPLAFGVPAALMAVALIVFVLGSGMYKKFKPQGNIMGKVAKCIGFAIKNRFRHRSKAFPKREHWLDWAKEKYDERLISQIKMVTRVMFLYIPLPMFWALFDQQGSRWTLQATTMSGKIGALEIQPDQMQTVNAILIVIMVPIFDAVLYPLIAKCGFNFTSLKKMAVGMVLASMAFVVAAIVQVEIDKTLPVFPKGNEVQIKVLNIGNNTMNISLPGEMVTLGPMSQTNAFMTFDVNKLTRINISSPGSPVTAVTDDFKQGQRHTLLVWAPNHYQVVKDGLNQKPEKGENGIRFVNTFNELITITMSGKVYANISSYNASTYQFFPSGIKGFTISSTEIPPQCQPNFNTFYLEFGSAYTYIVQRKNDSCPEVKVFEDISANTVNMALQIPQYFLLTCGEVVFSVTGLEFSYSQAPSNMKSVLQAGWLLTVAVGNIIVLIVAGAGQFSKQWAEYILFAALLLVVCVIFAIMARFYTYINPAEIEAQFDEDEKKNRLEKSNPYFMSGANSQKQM", "assay": "Inhibition of radiolabelled Gly-Sar uptake in DC5 cells overexpressing HPEPT1", "assay_type": "cell-based", "set-up": "expressed in transfected cells; host or cells: HeLa cells overexpressing hPEPT1 (called 'HPEPT1 infected cells')", "settings": "inhibition of Gly-Sar uptake, DC5 cells overexpressing HPEPT1, 10 min, 37° C.; read-out: DC5 IC50", "protocol": "Amino acid prodrugs are tested for their interaction with the dipeptide transporter, HPEPT1, using tissue culture cells that are engineered to overexpress HPEPT1. In this example, the cells that overexpress HPEPT1, termed DC5, are a human meduloblastoma cell line that is stably transfected with a eukaryotic expression vector encoding HPEPT1. […] DC5 cells are plated at a density of 12,000 cells/well in 96-well tissue culture plates and allowed to grow for 2 days. The cells are washed once with 200 microliters of uptake buffer and aspirated. The plates are cooled to 4° C. and 25 ul of uptake buffer containing 125 nanomoles Gly-Sar (at a specific activity of 1 microcurie/micromole) is added. The uptake buffer also contains the prodrugs to be tested at concentrations ranging from 10 micromolar to 20 millimolar. The assay is initiated by placing the plate in a shaking water bath at 37° C. and is terminated after 10 min by rapid washing with multiple changes of 4° C. phosphate buffered saline (PBS). The radioactive Gly-Sar peptide that is transported by the hpept1 is extracted from the cell layer with 200 ul of a one to one mixture of methanol and water and is counted in 4 ml of CytoScint ES™ scintillation cocktail (ICN). The data are plotted as % Gly-Sar uptake of control (no competitive substrate) versus the competitive substrate concentration. […] Typically, values that are below 10 mM indicate that the drug interacts with transporter."}, "[2]": {"assay": "not given", "remark": "listed apart in the source"}, "HPEPT1 [3]": {"target": "T1, HPEPT1", "settings": "for Uptake (hPepT1): HeLa cells overexpressing HPEPT1, 50 micromolar, pH 6.0, 45 minutes; for hPepT1/Control: ratio of uptake in hPepT1 cells versus control cells"}, "[4]": {"assay": "not given", "remark": "listed apart in the source"}}, "data": [{"smiles": "Nc1ccn([C@@H]2O[C@H](CO)[C@@H](O)C2(F)F)c(=O)n1", "note": "[Gemcitabine, reference compound]", "values": [{"measurement": "IC50", "setting": "HPEPT1 [1]", "result": "> 20", "unit": "mM"}]}, {"smiles": "CC(C)[C@@H](N)C(=O)O[C@@H]1[C@@H](CO)O[C@@H](n2ccc(N)nc2=O)C1(F)F", "note": "[3′-O-D-valyl Gemcitabine]", "values": [{"measurement": "t1/2 Caco-2 cell homogenates", "result": "23.2 ± 0.2", "unit": "min"}, {"measurement": "t1/2 Human plasma", "setting": "[2]", "result": "5.99 ± 0.0", "unit": "min"}, {"measurement": "Uptake (hPepT1)", "setting": "HPEPT1 [3]", "result": "0.81 ± 0.02", "unit": "nmole/mg/45 min"}, {"measurement": "hPepT1/Control", "setting": "HPEPT1 [3]", "result": 1.06}, {"measurement": "t1/2 Buffer pH 7.4", "setting": "[4]", "result": "74.0 ± 1.2", "unit": "min"}]}, {"smiles": "CC(C)[C@@H](N)C(=O)OC[C@H]1O[C@@H](n2ccc(N)nc2=O)C(F)(F)[C@@H]1OC(=O)[C@H](N)C(C)C", "note": "[3′,5′-di-O-D-valyl gemcitabine]", "values": [{"measurement": "t1/2 Caco-2 cell homogenates", "result": "10.3 ± 0.7", "unit": "min"}, {"measurement": "t1/2 Human plasma", "setting": "[2]", "result": "2.1 ± 0.1", "unit": "min"}, {"measurement": "Uptake (hPepT1)", "setting": "HPEPT1 [3]", "result": "1.11 ± 0.08", "unit": "nmole/mg/45 min"}, {"measurement": "hPepT1/Control", "setting": "HPEPT1 [3]", "result": 1.13}, {"measurement": "t1/2 Buffer pH 7.4", "setting": "[4]", "result": "52.0 ± 1.1", "unit": "min"}]}, {"smiles": "Nc1ccn([C@@H]2O[C@H](CO)[C@@H](OC(=O)[C@H](N)Cc3ccccc3)C2(F)F)c(=O)n1", "note": "[3′-O-D-phenylalanyl Gemcitabine]", "values": [{"measurement": "t1/2 Caco-2 cell homogenates", "result": "8.8 ± 0.1", "unit": "min"}, {"measurement": "t1/2 Human plasma", "setting": "[2]", "result": "7.7 ± 0.2", "unit": "min"}, {"measurement": "Uptake (hPepT1)", "setting": "HPEPT1 [3]", "result": "Not detected"}, {"measurement": "t1/2 Buffer pH 7.4", "setting": "[4]", "result": "39.0 ± 0.7", "unit": "min"}]}, {"smiles": "Nc1ccn([C@@H]2O[C@H](COC(=O)[C@@H](N)Cc3ccccc3)[C@@H](O)C2(F)F)c(=O)n1", "note": "[5′-O-L-phenylalanyl Gemcitabine]", "values": [{"measurement": "t1/2 Caco-2 cell homogenates", "result": "3.2 ± 0.1", "unit": "min"}, {"measurement": "t1/2 Human plasma", "setting": "[2]", "result": "8.4 ± 0.2", "unit": "min"}, {"measurement": "Uptake (hPepT1)", "setting": "HPEPT1 [3]", "result": "Not detected"}, {"measurement": "t1/2 Buffer pH 7.4", "setting": "[4]", "result": "200.0 ± 1.9", "unit": "min"}]}, {"smiles": "CC(C)[C@@H](N)C(=O)OC[C@H]1O[C@@H](n2ccc(N)nc2=O)C(F)(F)[C@@H]1O", "note": "[5′-O-D-valyl Gemcitabine]", "values": [{"measurement": "t1/2 Caco-2 cell homogenates", "result": "37.4 ± 1.4", "unit": "min"}, {"measurement": "t1/2 Human plasma", "setting": "[2]", "result": "58.1 ± 2.1", "unit": "min"}, {"measurement": "Uptake (hPepT1)", "setting": "HPEPT1 [3]", "result": "1.14 ± 0.04", "unit": "nmole/mg/45 min"}, {"measurement": "hPepT1/Control", "setting": "HPEPT1 [3]", "result": 1.58}, {"measurement": "t1/2 Buffer pH 7.4", "setting": "[4]", "result": "424.0 ± 1.2", "unit": "min"}]}, {"smiles": "Nc1ccn([C@@H]2O[C@H](CO)[C@@H](OC(=O)[C@@H](N)Cc3ccccc3)C2(F)F)c(=O)n1", "note": "[3′-O-L-phenylalanyl Gemcitabine]", "values": [{"measurement": "t1/2 Caco-2 cell homogenates", "result": "0.8 ± 0.0", "unit": "min"}, {"measurement": "t1/2 Human plasma", "setting": "[2]", "result": "5.7 ± 0.1", "unit": "min"}, {"measurement": "Uptake (hPepT1)", "setting": "HPEPT1 [3]", "result": "Not detected"}, {"measurement": "t1/2 Buffer pH 7.4", "setting": "[4]", "result": "39.0 ± 0.12", "unit": "min"}]}, {"smiles": "O=C(OCC1OC(n2cc(F)c(=O)[nH]c2=O)CC1OC(=O)C1CCCN1)C1CCCN1", "note": "(stereo not shown) [3′,5′-di-O-prolyl-Floxuridine]", "values": [{"measurement": "IC50", "setting": "HPEPT1 [1]", "result": "> 20", "unit": "mM"}]}, {"smiles": "O=c1[nH]c(=O)n([C@H]2C[C@H](O)[C@@H](CO)O2)cc1F", "note": "[Floxuridine, reference compound]", "values": [{"measurement": "IC50", "setting": "HPEPT1 [1]", "result": "> 20", "unit": "mM"}]}, {"smiles": "O=C(OCC1OC(n2cc(F)c(=O)[nH]c2=O)CC1O)C1CCCN1", "note": "(stereo not shown) [5′-O-prolyl-Floxuridine]", "values": [{"measurement": "IC50", "setting": "HPEPT1 [1]", "result": "> 20", "unit": "mM"}]}, {"smiles": "Nc1ccn([C@@H]2O[C@H](COC(=O)[C@H](N)Cc3ccccc3)[C@@H](OC(=O)[C@H](N)Cc3ccccc3)C2(F)F)c(=O)n1", "note": "[3′,5′-di-O-D-phenylalanyl Gemcitabine]", "values": [{"measurement": "t1/2 Caco-2 cell homogenates", "result": "8.3 ± 0.6", "unit": "min"}, {"measurement": "t1/2 Human plasma", "setting": "[2]", "result": "2.4 ± 0.2", "unit": "min"}, {"measurement": "Uptake (hPepT1)", "setting": "HPEPT1 [3]", "result": "Not detected"}, {"measurement": "t1/2 Buffer pH 7.4", "setting": "[4]", "result": "28.0 ± 0.6", "unit": "min"}]}, {"smiles": "Nc1ccn([C@@H]2O[C@H](COC(=O)[C@H](N)Cc3ccccc3)[C@@H](O)C2(F)F)c(=O)n1", "note": "[5′-O-D-phenylalanyl Gemcitabine]", "values": [{"measurement": "t1/2 Caco-2 cell homogenates", "result": "11.4 ± 0.2", "unit": "min"}, {"measurement": "t1/2 Human plasma", "setting": "[2]", "result": "34.8 ± 1.1", "unit": "min"}, {"measurement": "Uptake (hPepT1)", "setting": "HPEPT1 [3]", "result": "Not detected"}, {"measurement": "t1/2 Buffer pH 7.4", "setting": "[4]", "result": "204.0 ± 3.5", "unit": "min"}]}, {"smiles": "Nc1nc(O)c2ncn(COC(CO)CO)c2n1", "note": "[Ganciclovir, reference compound]", "values": [{"measurement": "IC50", "setting": "HPEPT1 [1]", "result": "> 20", "unit": "mM"}]}, {"smiles": "Nc1nc2c(ncn2COCCO)c(=O)[nH]1", "note": "[Acyclovir, reference compound]", "values": [{"measurement": "IC50", "setting": "HPEPT1 [1]", "result": "> 25", "unit": "mM"}]}, {"smiles": "O=C(OC1CC(n2cc(F)c(=O)[nH]c2=O)OC1CO)C1CCCN1", "note": "(stereo not shown) [3′-O-prolyl-Floxuridine]", "values": [{"measurement": "IC50", "setting": "HPEPT1 [1]", "result": "> 20", "unit": "mM"}]}, {"smiles": "Nc1ccn([C@@H]2O[C@H](COC(=O)[C@@H](N)Cc3ccccc3)[C@@H](OC(=O)[C@@H](N)Cc3ccccc3)C2(F)F)c(=O)n1", "note": "[3′,5′-di-O-L-phenylalanyl gemcitabine]", "values": [{"measurement": "t1/2 Caco-2 cell homogenates", "result": "0.6 ± 0.0", "unit": "min"}, {"measurement": "t1/2 Human plasma", "setting": "[2]", "result": "0.7 ± 0.0", "unit": "min"}, {"measurement": "Uptake (hPepT1)", "setting": "HPEPT1 [3]", "result": "Not detected"}, {"measurement": "t1/2 Buffer pH 7.4", "setting": "[4]", "result": "38.0 ± 0.2", "unit": "min"}]}]}
